{
  "source": "ChEMBL document CHEMBL4011592",
  "about": "“Synthesis and evaluation of 7-substituted-5,6-dihydrobenzo[c]acridine derivatives as new c-KIT promoter G-quadruplex binding ligands” (Eur J Med Chem, 2017)",
  "key": {"Homo sapiens [1]": {"species_on_record": "Homo sapiens", "experiment": "Binding affinity to c-KIT G-quadruplex DNA in human K562 cells assessed as reduction in c-KIT mRNA level at 0.5 uM after 48 hrs by RT-PCR analysis", "assay_type": "cell-based"}, "[2]": {"experiment": "Binding affinity to biotinylated c-KIT1 G-quadruplex DNA (unknown origin) by SPR assay"}, "K562 [3]": {"system": "K562", "experiment": "Induction of apoptosis in human K562 cells assessed as late apoptotic cells at 6 uM after 48 hrs by flow cytometric method (reference value: 0.1 %)", "assay_type": "functional"}, "K562 [4]": {"system": "K562", "experiment": "Cytotoxicity against human K562 cells after 48 hrs by MTT assay", "assay_type": "functional, cell-based", "settings": "K562, 48 h"}, "HeLa": {"system": "HeLa", "experiment": "Cytotoxicity against human HeLa cells after 48 hrs by MTT assay", "assay_type": "functional, cell-based"}, "K562 [5]": {"system": "K562", "experiment": "Cytotoxicity against human K562 cells expressing c-KIT measured up to 3 days by Annexin V-FITC/propidium iodide staining based assay", "assay_type": "functional, cell-based"}, "K562 [6]": {"system": "K562", "experiment": "Effect on total c-KIT protein level in human K562 cells at 9 uM after 48 hrs by Western blot analysis", "assay_type": "ADME, cell-based", "settings": "k562, 48 h"}, "[7]": {"experiment": "Binding affinity to c-KIT1 G-quadruplex DNA (unknown origin) assessed as ability to promote c-KIT G-rich sequences to form parallel G-quadruplex at 25 uM in absence of KCl measured after 10 mins by CD-spectroscopic analysis"}, "K562 [8]": {"system": "K562", "experiment": "Induction of apoptosis in human K562 cells assessed as decrease in Bcl-2 expression at 1 to 9 uM after 48 hrs by Western blot analysis", "assay_type": "functional, cell-based"}, "[9]": {"experiment": "Binding affinity to 5'-FAM labelled c-KIT1 G-quadruplex DNA (unknown origin) by microscale thermophoresis"}, "[10]": {"experiment": "Binding affinity to c-KIT1 G-quadruplex DNA (unknown origin) assessed as hyperchromicity at 10 uM measured after 10 mins by UV-vis spectroscopic method"}, "[11]": {"experiment": "Binding affinity to c-KIT1 G-quadruplex DNA (unknown origin) measured after 10 mins by UV-vis spectroscopic method"}, "[12]": {"experiment": "Binding affinity to c-KIT1 G-quadruplex DNA (unknown origin) assessed as isosbestic point at 10 uM measured after 10 mins by UV-vis spectroscopic method"}, "[13]": {"experiment": "Binding affinity to 5'-FAM/3'-TAMARA labelled c-KIT2 G-quadruplex DNA (unknown origin) assessed as change in melting temperature at 1 uM by FRET assay"}, "[14]": {"experiment": "Binding affinity to c-KIT2 G-quadruplex DNA (unknown origin) assessed as ability to promote c-KIT G-rich sequences to form parallel G-quadruplex at 25 uM in absence of KCl measured after 10 mins by CD-spectroscopic analysis"}, "[15]": {"experiment": "Binding affinity to F10T duplex DNA (unknown origin) assessed as change in melting temperature at 1 uM by FRET assay"}, "[16]": {"experiment": "Binding affinity to c-KIT1 G-quadruplex DNA (unknown origin) assessed as 1:1 binding stoichiometry between compound and G-quadruplex DNA 10 uM by ESI-MS spectra analysis"}, "[17]": {"experiment": "Binding affinity to 5'-FAM/3'-TAMARA labelled c-KIT1 G-quadruplex DNA (unknown origin) assessed as change in melting temperature at 1 uM by FRET assay"}, "[18]": {"experiment": "Binding affinity to 5'-FAM/3'-TAMARA labelled c-KIT1 G-quadruplex DNA (unknown origin) assessed as change in melting temperature at 2 uM by FRET assay"}, "[19]": {"experiment": "Binding affinity to 5'-FAM/3'-TAMARA labelled c-KIT1 G-quadruplex DNA (unknown origin) assessed as change in melting temperature at 2 uM in presence ds26 DNA by FRET assay"}, "[20]": {"experiment": "Binding affinity to c-KIT1 G-quadruplex DNA (unknown origin) assessed as red shift at 10 uM measured after 10 mins by UV-vis spectroscopic method"}, "[21]": {"experiment": "Binding affinity to 5'-FAM labelled duplex DNA (unknown origin) by microscale thermophoresis"}, "[22]": {"experiment": "Binding affinity to c-KIT1 G-quadruplex DNA (unknown origin) assessed as maintainance of parallel c-KIT G-quadruplex conformation at 5 uM in presence of KCl measured after 10 mins by CD-spectroscopic analysis"}, "K562 [23]": {"system": "K562", "experiment": "Induction of apoptosis in human K562 cells assessed as increase in Bax expression after 48 hrs by Western blot analysis", "assay_type": "functional, cell-based"}, "[24]": {"experiment": "Binding affinity to c-KIT1 G-quadruplex DNA (unknown origin) assessed as 1:1 binding stoichiometry between compound and G-quadruplex DNA by Job's plot method"}, "K562 [25]": {"system": "K562", "experiment": "Induction of apoptosis in human K562 cells assessed as increase in Bad expression after 48 hrs by Western blot analysis", "assay_type": "functional, cell-based"}, "[26]": {"experiment": "Binding affinity to biotinylated duplex DNA (unknown origin) by SPR assay"}, "Homo sapiens [27]": {"species_on_record": "Homo sapiens", "experiment": "Binding affinity to c-KIT G-quadruplex DNA in human K562 cells assessed as reduction in c-KIT protein level after 48 hrs by Western blot analysis", "assay_type": "cell-based"}, "[28]": {"experiment": "Binding affinity to F10T duplex DNA (unknown origin) assessed as change in melting temperature at 2 uM by FRET assay"}, "K562 [29]": {"system": "K562", "experiment": "Induction of apoptosis in human K562 cells assessed as late apoptotic cells at 1 uM after 48 hrs by flow cytometric method (reference value: 0.1 %)", "assay_type": "functional"}, "A549": {"system": "A549", "experiment": "Cytotoxicity against human A549 cells after 48 hrs by MTT assay", "assay_type": "functional, cell-based", "settings": "A549, 48 h"}, "Homo sapiens [30]": {"species_on_record": "Homo sapiens", "experiment": "Binding affinity to c-KIT G-quadruplex DNA in human K562 cells assessed as reduction in c-KIT mRNA level after 48 hrs by RT-PCR analysis", "assay_type": "cell-based"}, "[31]": {"experiment": "Binding affinity to c-KIT2 G-quadruplex DNA (unknown origin) assessed as maintainance of parallel c-KIT G-quadruplex conformation at 5 uM in presence of KCl measured after 10 mins by CD-spectroscopic analysis"}, "BJ": {"system": "BJ", "experiment": "Cytotoxicity against human BJ cells after 48 hrs by MTT assay", "assay_type": "cell-based"}, "K562 [32]": {"system": "K562", "experiment": "Induction of apoptosis in human K562 cells assessed as increase in cleaved PARP level at 1 to 9 uM after 48 hrs by Western blot analysis", "assay_type": "functional, cell-based"}, "Homo sapiens [33]": {"species_on_record": "Homo sapiens", "experiment": "Binding affinity to c-KIT G-quadruplex DNA in human K562 cells assessed as reduction in c-KIT mRNA level at 9 uM after 48 hrs by RT-PCR analysis relative to control", "assay_type": "cell-based", "set-up": "scale not given: the % may be the effect or the level left"}, "K562 [34]": {"system": "K562", "experiment": "Induction of apoptosis in human K562 cells assessed as late apoptotic cells at 9 uM after 48 hrs by flow cytometric method (reference value: 0.1 %)", "assay_type": "functional"}, "K562 [35]": {"system": "K562", "experiment": "Induction of apoptosis in human K562 cells assessed as increase in late apoptotic cells after 48 hrs by flow cytometric method", "assay_type": "functional, cell-based"}, "K562 [36]": {"system": "K562", "experiment": "Induction of apoptosis in human K562 cells assessed as late apoptotic cells at 3 uM after 48 hrs by flow cytometric method (reference value: 0.1 %)", "assay_type": "functional"}, "K562 [37]": {"system": "K562", "experiment": "Induction of apoptosis in human K562 cells assessed as upregulation of cleaved caspase-3 at 1 to 9 uM after 48 hrs by Western blot analysis", "assay_type": "functional, cell-based"}, "[38]": {"experiment": "Selectivity ratio of Kd for biotinylated duplex DNA (unknown origin) to Kd for biotinylated c-KIT1 G-quadruplex DNA (unknown origin)"}, "[39]": {"experiment": "Binding affinity to c-KIT1 G-quadruplex DNA (unknown origin) assessed as hyperchromicity at 5 uM measured after 10 mins by fluorescence spectroscopic method"}},
  "note": "Active and inactive are the calls of the source. The calls are words filed in the database; no cut-off is given here.",
  "data": [
    {"smiles": "Cc1ccc(NC(=O)c2ccc(CN3CCN(C)CC3)cc2)cc1Nc1nccc(-c2cccnc2)n1", "values": [
      {"measurement": "Activity", "setting": "Homo sapiens [1]", "result": "inactive"}
    ]},
    {"smiles": "CCN(CC)CCCNc1c2c(nc3ccccc13)-c1cc(OC)c(OC)cc1CC2", "values": [
      {"measurement": "Kd", "setting": "[2]", "result": 4.7, "unit": "µM"},
      {"measurement": "Activity", "setting": "K562 [3]", "result": 8.4, "unit": "%"},
      {"measurement": "IC50", "setting": "K562 [4]", "result": 9.2, "unit": "µM"},
      {"measurement": "IC50", "setting": "HeLa", "result": 3.2, "unit": "µM"},
      {"measurement": "Activity", "setting": "K562 [5]", "result": "Dose-dependent effect"},
      {"measurement": "Activity", "setting": "K562 [6]", "result": "Non-Toxic"},
      {"measurement": "Activity", "setting": "[7]", "result": "Active"},
      {"measurement": "Activity", "setting": "K562 [8]", "result": "Active"},
      {"measurement": "Kd", "setting": "[9]", "result": 1.5, "unit": "µM"},
      {"measurement": "Activity", "setting": "[10]", "result": "Active"},
      {"measurement": "Kd", "setting": "[11]", "result": 3.3, "unit": "µM"},
      {"measurement": "Activity", "setting": "[12]", "result": "Active"},
      {"measurement": "ΔTm", "setting": "[13]", "result": 5.4, "unit": "°C"},
      {"measurement": "Activity", "setting": "[14]", "result": "Active"},
      {"measurement": "ΔTm", "setting": "[15]", "result": 0.6, "unit": "°C"},
      {"measurement": "Activity", "setting": "[16]", "result": "Active"},
      {"measurement": "ΔTm", "setting": "[17]", "result": 11.9, "unit": "°C"},
      {"measurement": "ΔTm", "setting": "[18]", "result": 15.9, "unit": "°C"},
      {"measurement": "Activity", "setting": "[19]", "result": "Active"},
      {"measurement": "Activity", "setting": "[20]", "result": "Active"},
      {"measurement": "Kd", "setting": "[21]", "result": 10.5, "unit": "µM"},
      {"measurement": "Activity", "setting": "[22]", "result": "Active"},
      {"measurement": "Activity", "setting": "K562 [23]", "result": "Dose-dependent effect"},
      {"measurement": "Activity", "setting": "[24]", "result": "Active"},
      {"measurement": "Activity", "setting": "K562 [25]", "result": "Dose-dependent effect"},
      {"measurement": "Kd", "setting": "[26]", "result": "> 20", "unit": "µM"},
      {"measurement": "Activity", "setting": "Homo sapiens [27]", "result": "Dose-dependent effect"},
      {"measurement": "ΔTm", "setting": "[28]", "result": 1.2, "unit": "°C"},
      {"measurement": "Activity", "setting": "K562 [29]", "result": 1.8, "unit": "%"},
      {"measurement": "IC50", "setting": "A549", "result": 5.7, "unit": "µM"},
      {"measurement": "Activity", "setting": "Homo sapiens [30]", "result": "Dose-dependent effect"},
      {"measurement": "Activity", "setting": "[31]", "result": "Active"},
      {"measurement": "IC50", "setting": "BJ", "result": 29.4, "unit": "µM"},
      {"measurement": "Activity", "setting": "K562 [32]", "result": "Active"},
      {"measurement": "Activity", "setting": "Homo sapiens [33]", "result": 52, "unit": "%"},
      {"measurement": "Activity", "setting": "K562 [34]", "result": 64.8, "unit": "%"},
      {"measurement": "Activity", "setting": "K562 [35]", "result": "Dose-dependent effect"},
      {"measurement": "Activity", "setting": "K562 [36]", "result": 3.6, "unit": "%"},
      {"measurement": "Activity", "setting": "K562 [37]", "result": "Active"},
      {"measurement": "Selectivity ratio", "setting": "[38]", "result": "> 4.3"},
      {"measurement": "Activity", "setting": "[39]", "result": "Active"}
    ]}
  ]
}
